Results from patent US20230066946A1, “1,5-DIPHENYLPYRAZOLYL-3-OXYALKYL ACIDS AND 1-PHENYL-5-THIENYLPYRAZOLYL-3-OXYALKYL ACIDS AND THE USE THEREOF FOR CONTROL OF UNWANTED PLANT GROWTH” (Bayer Aktiengesellschaft, priority 2019, published 2023).

Tests used:
[1] = tested on: STEME; test: Post-emergence herbicidal action against STEME; format: in vivo, Stellaria media; conditions: visual rating about 3 weeks after treatment
Summary of the method: (§1)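 Visual scoring, where 100% = dead and 0% = like untreated plants, was done about 3 weeks after treatment. Dose was 1280 or 320 g/ha, delivered as aqueous WP/EC suspension or emulsion with 0.5% additive at 600 L/ha. Pot-grown weeds in sandy loam were treated post-emergence at one leaf, 2-3 weeks post-sowing.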

[2] = tested on: ECHCG; test: Post-emergence herbicidal action against ECHCG; format: in vivo, Echinochloa crus-galli; conditions: 1280 g/ha, post-emergence at one-leaf stage, rated visually after about 3 weeks vs untreated controls
Summary of the method: as §1

[3] = tested on: POLCO; test: Pre-emergence herbicidal action against POLCO; format: in vivo, Polygonum convolvulus; conditions: 320 g/ha, scored visually after about 3 weeks vs untreated controls
Summary of the method: (§2)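 Scoring is visual, in percent relative to untreated pots, roughly 3 weeks after soil-surface application. Rates were 1280 or 320 g/ha, delivered as WP or EC preparations with 0.5% additive in 600 L/ha water onto freshly sown, covered sandy loam.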

[4] = tested on: MATIN; test: Post-emergence herbicidal action against MATIN; format: in vivo, Matricaria inodora; conditions: visual rating about 3 weeks after treatment
Summary of the method: as §1

[5] = tested on: harmful plants; test: Pre-emergence herbicidal action, summary of Tables 4.1-4.15; format: in vivo; conditions: result in words
Summary of the method: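 Percent herbicidal action (100% = plants dead, 0% = like controls) was assessed visually about 3 weeks after treatment. Application rates of 1280 or 320 g/ha were applied to the covering soil of freshly sown sandy-loam pots, in 600 l/ha water with 0.5% additive, before emergence.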

[6] = tested on: SETVI; test: Pre-emergence herbicidal action against SETVI; format: in vivo, Setaria viridis; conditions: 1280 g/ha, scored visually after about 3 weeks vs untreated controls
Summary of the method: as §2

[7] = tested on: SETVI; test: Post-emergence herbicidal action against SETVI; format: in vivo, Setaria viridis; conditions: 1280 g/ha, post-emergence at one-leaf stage, rated visually after about 3 weeks vs untreated controls
Summary of the method: as §1

[8] = tested on: AMARE; test: Post-emergence herbicidal action against AMARE; format: in vivo, Amaranthus retroflexus; conditions: visual rating about 3 weeks after treatment
Summary of the method: as §1

[9] = tested on: VIOTR; test: Pre-emergence herbicidal action against VIOTR; format: in vivo, Viola tricolor; conditions: 1280 g/ha, scored visually after about 3 weeks vs untreated controls
Summary of the method: as §2

[10] = tested on: ALOMY; test: Post-emergence herbicidal action against ALOMY; format: in vivo, Alopecurus myosuroides; conditions: 1280 g/ha, post-emergence at one-leaf stage, rated visually after about 3 weeks vs untreated controls
Summary of the method: as §1

[11] = tested on: ALOMY; test: Pre-emergence herbicidal action against ALOMY; format: in vivo, Alopecurus myosuroides; conditions: scored visually after about 3 weeks vs untreated controls, 100% = plants have died, 0% = like control plants
Text: (§3) Seeds of mono- and dicotyledonous weed plants are placed in plastic pots in sandy loam soil (doubly sown with one species each of mono- or dicotyledonous weed plants per pot) and covered with soil. The compounds of the invention, formulated in the form of wettable powders (WP) or as emulsion concentrates (EC), are then applied onto the surface of the covering soil as aqueous suspension or emulsion with addition of 0.5% additive at a water application rate equivalent to 600 litres per hectare. After the treatment, the pots are placed in a greenhouse and kept under good growth conditions for the trial plants. After about 3 weeks, the effect of the preparations is scored visually in comparison with untreated controls as percentages. For example, 100% activity=the plants have died, 0% activity=like control plants. [table] Tables 4.1-4.15 below show the effects of selected compounds of the general formula (I) according to Tables 1 to 3 on various harmful plants at an application rate corresponding to 1280 or 320 g/ha, which have been obtained by the aforementioned experimental method.

[12] = tested on: PHBPU; test: Pre-emergence herbicidal action against PHBPU; format: in vivo, Pharbitis purpurea; conditions: 1280 g/ha, scored visually after about 3 weeks vs untreated controls
Text: as §3

[13] = tested on: harmful plants; test: Post-emergence herbicidal action, summary of Tables 5.1-5.16; format: in vivo; conditions: result in words
Experimental: Seeds of mono- and dicotyledonous weed plants are placed in plastic pots in sandy loam soil (twin sowing with one species each of mono- or dicotyledonous weed plants per pot), covered with soil and cultivated in a greenhouse under controlled growth conditions. 2 to 3 weeks after sowing, the test plants are treated at the one-leaf stage. The compounds of the invention, formulated in the form of wettable powders (WP) or as emulsion concentrates (EC), are applied to the green parts of the plants as aqueous suspension or emulsion with addition of 0.5% additive at a water application rate equivalent to 600 litres per hectare. After the test plants have been kept in the greenhouse under optimum growth conditions for about 3 weeks, the activity of the preparations is rated visually in comparison to untreated controls. For example, 100% activity=the plants have died, 0% activity=like control plants. Tables 5.1-5.16 below show the effects of selected compounds of the general formula (I) according to Tables 1 to 3 on various harmful plants at an application rate corresponding to 1280 or 320 g/ha, which have been obtained by the aforementioned experimental method. As the results from Tables 5.1-5.16 show, compounds of the invention have good herbicidal post-emergence efficacy against a broad spectrum of weed grasses and weeds. […] For example, compounds Nos. I-002, I-006, I-022, I-056 and I-072 applied by the post-emergence method have very good herbicidal action (80% to 100% herbicidal action) against harmful plants such as Alopecurus myosuroides, Amaranthus retroflexus, Matricaria inodora, Setaria viridis, Pharbitis purpurea and Stellaria media at an application rate of 1.28 kg of active substance or less per hectare.

[14] = tested on: MATIN; test: Pre-emergence herbicidal action against MATIN; format: in vivo, Matricaria inodora; conditions: 1280 g/ha, scored visually after about 3 weeks vs untreated controls
Summary of the method: as §2

[15] = tested on: AMARE; test: Pre-emergence herbicidal action against AMARE; format: in vivo, Amaranthus retroflexus; conditions: scored visually after about 3 weeks vs untreated controls; for Pre-emergence action at 320 g/ha against AMARE in %: 100% = plants have died, 0% = like control plants; for Pre-emergence action against AMARE in %: 1280 g/ha
Summary of the method: as §2

[16] = tested on: STEME; test: Pre-emergence herbicidal action against STEME; format: in vivo, Stellaria media; conditions: scored visually after about 3 weeks vs untreated controls
Summary of the method: as §2

[17] = tested on: PHBPU; test: Post-emergence herbicidal action against PHBPU; format: in vivo, Pharbitis purpurea; conditions: 320 g/ha, visual rating about 3 weeks after treatment
Summary of the method: as §1

[18] = tested on: CYPES; test: Pre-emergence herbicidal action against CYPES; format: in vivo, Cyperus esculentus; conditions: scored visually after about 3 weeks vs untreated controls, 100% = plants have died, 0% = like control plants
Text: as §3

[19] = tested on: VERPE; test: Pre-emergence herbicidal action against VERPE; format: in vivo, Veronica persica; conditions: 320 g/ha, scored visually after about 3 weeks vs untreated controls
Summary of the method: as §2

[20] = tested on: ECHCG; test: Pre-emergence herbicidal action against ECHCG; format: in vivo, Echinochloa crus-galli; conditions: scored visually after about 3 weeks vs untreated controls, 100% = plants have died, 0% = like control plants
Summary of the method: as §2

[21] = tested on: POLCO; test: Post-emergence herbicidal action against POLCO; format: in vivo, Polygonum convolvulus; conditions: 320 g/ha, visual rating about 3 weeks after treatment
Summary of the method: as §1

[22] = tested on: VIOTR; test: Post-emergence herbicidal action against VIOTR; format: in vivo, Viola tricolor; conditions: 320 g/ha, visual rating about 3 weeks after treatment
Summary of the method: as §1

[23] = tested on: VERPE; test: Post-emergence herbicidal action against VERPE; format: in vivo, Veronica persica; conditions: 320 g/ha, visual rating about 3 weeks after treatment
Summary of the method: as §1

[24] = tested on: HORMU; test: Post-emergence herbicidal action against HORMU; format: in vivo, Hordeum murinum; conditions: 320 g/ha, visual rating about 3 weeks after treatment
Experimental: [table] Seeds of mono- and dicotyledonous weed plants are placed in plastic pots in sandy loam soil (twin sowing with one species each of mono- or dicotyledonous weed plants per pot), covered with soil and cultivated in a greenhouse under controlled growth conditions. 2 to 3 weeks after sowing, the test plants are treated at the one-leaf stage. The compounds of the invention, formulated in the form of wettable powders (WP) or as emulsion concentrates (EC), are applied to the green parts of the plants as aqueous suspension or emulsion with addition of 0.5% additive at a water application rate equivalent to 600 litres per hectare. After the test plants have been kept in the greenhouse under optimum growth conditions for about 3 weeks, the activity of the preparations is rated visually in comparison to untreated controls. For example, 100% activity=the plants have died, 0% activity=like control plants. Tables 5.1-5.16 below show the effects of selected compounds of the general formula (I) according to Tables 1 to 3 on various harmful plants at an application rate corresponding to 1280 or 320 g/ha, which have been obtained by the aforementioned experimental method.

[25] = tested on: HORMU; test: Pre-emergence herbicidal action against HORMU; format: in vivo, Hordeum murinum; conditions: 320 g/ha, scored visually after about 3 weeks vs untreated controls
Text: as §3

SMILES	Post-emergence action against STEME in % ([1]; 1280 g/ha) [%]	Post-emergence action against ECHCG in % [2] [%]	Pre-emergence action against POLCO in % [3] [%]	Post-emergence action against MATIN in % ([4]; 1280 g/ha) [%]	herbicidal efficacy against harmful plants in the case of pre-emergence treatment [5]	Pre-emergence action against SETVI in % [6] [%]	Post-emergence action against AMARE in % ([8]; 1280 g/ha) [%]	Pre-emergence action against VIOTR in % [9] [%]	Post-emergence action against ALOMY in % [10] [%]	Pre-emergence action at 1280 g/ha against ALOMY in % [11] [%]	Pre-emergence action against PHBPU in % [12] [%]	Pre-emergence action against MATIN in % [14] [%]	Pre-emergence action at 320 g/ha against AMARE in % [15] [%]	Pre-emergence action against AMARE in % [15] [%]	Pre-emergence action against STEME in % ([16]; 1280 g/ha) [%]	Post-emergence action against STEME in % ([1]; 320 g/ha) [%]	Post-emergence action against MATIN in % ([4]; 320 g/ha) [%]	Post-emergence action against PHBPU in % [17] [%]	Pre-emergence action at 1280 g/ha against CYPES in % [18] [%]	Pre-emergence action against STEME in % ([16]; 320 g/ha) [%]	other results
CCOC(=O)COc1nn(-c2ccc(F)cc2)c(-c2ccccc2)c1Br [I-072]	80	80	90	80	good herbicidal efficacy	80	80	80	80	80	90	80	80	90	90	–	–	–	–	–	Post-emergence action against SETVI in % [7]: 80%; herbicidal efficacy against harmful plants when applied post-emergence [13]: very good herbicidal efficacy
COC(=O)COc1nn(-c2cccc(F)c2)c(-c2cccc(F)c2)c1Cl [I-003]	80	80	–	80	good herbicidal efficacy	–	80	–	–	–	80	100	100	100	100	80	80	80	100	–	Pre-emergence action against VERPE in % [19]: 100%; herbicidal efficacy against harmful plants when applied post-emergence [13]: very good herbicidal efficacy
COC(=O)C(C)Oc1nn(-c2ccccc2F)c(-c2ccccc2)c1C#N (stereo not drawn) [I-061]	80	80	–	–	good herbicidal efficacy	100	80	90	90	90	90	90	90	100	100	–	–	80	90	90	Post-emergence action against SETVI in % [7]: 80%; Post-emergence action against AMARE in % ([8]; 320 g/ha): 80%; Pre-emergence action at 1280 g/ha against ECHCG in % [20]: 90%; Post-emergence action against POLCO in % [21]: 80%; Post-emergence action against VIOTR in % [22]: 80%
C=CCNC(=O)COc1nn(-c2c(F)cccc2F)c(-c2ccc(F)c(F)c2)c1[N+](=O)[O-] [III-069]	–	–	90	–	good herbicidal efficacy	100	–	–	–	–	–	–	100	90	90	90	80	–	–	100	Post-emergence action against VERPE in % [23]: 90%; Post-emergence action against AMARE in % ([8]; 320 g/ha): 90%; Pre-emergence action at 1280 g/ha against ECHCG in % [20]: 100%; Post-emergence action against HORMU in % [24]: 80%; Post-emergence action against POLCO in % [21]: 80%; Pre-emergence action against VERPE in % [19]: 100%; Pre-emergence action against HORMU in % [25]: 90%
CCOC(=O)COc1nn(-c2ccccc2)c(-c2ccccc2)c1Br [I-070]	90	80	80	80	good herbicidal efficacy	90	80	90	80	90	90	90	100	100	90	–	–	90	80	80	Pre-emergence action at 1280 g/ha against ECHCG in % [20]: 90%
COC(=O)C(C)Oc1nn(-c2ccccc2)c(-c2ccc(F)cc2)c1C#N (stereo not drawn) [I-064]	–	–	100	–	–	–	–	–	–	–	–	–	100	–	–	90	80	80	–	90	Post-emergence action against HORMU in % [24]: 90%; Post-emergence action against POLCO in % [21]: 80%; Post-emergence action against VIOTR in % [22]: 100%; Pre-emergence action against HORMU in % [25]: 90%
